{"source": "patent US20090163528A1", "about": "“Pharmaceutical composition having analgesic effects” (priority 2004, published 2009)", "assay_type_in_all_cases": "in vivo", "key": {"Kunming breed mice [1]": {"system": "Kunming breed mice", "experiment": "Body twisting test, mixtures of fuziline and hypaconitine in different proportions (Test 6)", "conditions": "aspirin 200 mg/kg stomach perfusion"}, "Kunming breed mice [2]": {"system": "Kunming breed mice", "experiment": "Body twisting test, intramuscular injection of fuziline (Test 8)", "conditions": "200 mg/kg ig."}, "Kunming breed mice [3]": {"system": "Kunming breed mice", "conditions": "aspirin 200 mg/kg stomach perfusion"}, "Kunming breed mice [4]": {"system": "Kunming breed mice", "experiment": "Body twisting test, mixtures of fuziline and benzoylmesaconitine in different proportions (Test 7)", "conditions": "aspirin 200 mg/kg stomach perfusion"}, "Kunming breed mice [5]": {"system": "Kunming breed mice", "experiment": "Body twisting test, mixtures of fuziline, benzoylmesaconitine, mesaconitine and hypaconitine in different proportions (Test 4)", "conditions": "aspirin 200 mg/kg stomach perfusion", "experimental": "Enteric coated aspirin tablet, white, 25 mg/pill, supplied by Xuzhou Enhua Pharmaceuticals Co., Ltd, batch No.: 20050312; take 4 pills of enteric coated aspirin tablet; grind and add with distilled water up to 10 ml to compound 10 mg/ml of solution composed of aspirin;\nDivide at random the 70 Kunming breed mice, weighing 18-22 g, into 7 groups with equal number of each gender and each group, with the first group as the negative control group and the second group as the positive control group; perfuse the stomach of the first group mice with 0.2 ml/10 g of 10% alcohol; perfuse the stomach of the second group mice with 200 mg/kg (20 times the practice dose) of aspirin; the 3rd, 4th, 5th, 6th and 7th group are groups in five different proportions of […], benzoylmesaconitine, mesaconitine and hypaconitine; perfuse the groups with solution in five different proportions of […], benzoylmesaconitine, mesaconitine and hypaconitine; […]; inject into the stomach cavity of the mice with 0.2 ml of 0.6% glacial acetic acid 30 minutes after administration; observe the number of body twisting of each mouse 5 to 10 minutes after the injection of acetic acid; make statistical analysis of the data to calculate the increasing rate of pain threshold and the standard deviation of each group; compare the intergroup differences between each drug group and the negative control group with t-test."}, "Kunming breed mice [6]": {"system": "Kunming breed mice", "conditions": "200 mg/kg stomach perfusion"}, "Kunming breed mice [7]": {"system": "Kunming breed mice", "experiment": "Body twisting test, skin administration of fuziline (Test 9)", "conditions": "200 mg/kg ig.; acetic acid 30 minutes after", "experimental": "Divide randomly the 40 Kunming breed mice, weighing 18-22 g, into 4 groups with equal number of each gender and each group. […] The first group is the negative control group. Smear an even layer of Vaseline plaster 0.1 g/piece onto the hair-disposed area of the of negative control group mice, covered lightly with a piece of gauze (1.5 cm×1.5 cm). The second group, as the positive control group is given stomach perfusion with 200 mg/kg of aspirin (20 times the practice use). […] Except that the mice of the second group are injected into the stomach cavity with 0.6% glacial acetic acid solution 30 minutes after the smearing, the mice of all other groups are injected into the stomach cavity with 0.6% glacial acetic acid solution 1.5 hours after the smearing; observe the number of body twisting of each mouse 5 to 10 minutes after the injection; make statistical analysis of the data to calculate the increasing rate of pain threshold and the standard deviation of each group; compare the intergroup differences between each drug group and the negative control group with t-test."}}, "note": "Where two headings read alike, the source gives them in different places.", "data": [{"smiles": "CC(=O)Oc1ccccc1C(=O)O", "note": "[Aspirin, aspirin]", "values": [{"measurement": "Body twisting number ( x ± SD)", "setting": "Kunming breed mice [1]", "value": "3.1 ± 3.3"}, {"measurement": "Pain suppression rate", "setting": "Kunming breed mice [1]", "value": 82.7, "unit": "%"}, {"measurement": "Body twisting number ( x ± SD)", "setting": "Kunming breed mice [2]", "value": "5.1 ± 6.0"}, {"measurement": "Pain suppression rate", "setting": "Kunming breed mice [2]", "value": 81.6, "unit": "%"}, {"measurement": "Body twisting number ( x ± SD)", "setting": "Kunming breed mice [3]", "value": "3.0 ± 3.3"}, {"measurement": "Pain suppression rate", "setting": "Kunming breed mice [3]", "value": 82.7, "unit": "%"}, {"measurement": "Body twisting number ( x ± SD)", "setting": "Kunming breed mice [4]", "value": "3.1 ± 3.3"}, {"measurement": "Pain suppression rate", "setting": "Kunming breed mice [4]", "value": 82.7, "unit": "%"}, {"measurement": "Body twisting number ( x ± SD)", "setting": "Kunming breed mice [5]", "value": "3.3 ± 3.2"}, {"measurement": "Pain suppression rate", "setting": "Kunming breed mice [5]", "value": 88.0, "unit": "%"}, {"measurement": "Body twisting number ( χ ± SD)", "setting": "Kunming breed mice [6]; Table 2", "value": "3.1 ± 3.3"}, {"measurement": "Pain suppression rate", "setting": "Kunming breed mice [6]; Table 2", "value": 90.96, "unit": "%"}, {"measurement": "Body twisting number ( χ ± SD)", "setting": "Kunming breed mice [6]; Table 3", "value": "3.1 ± 3.2"}, {"measurement": "Pain suppression rate", "setting": "Kunming breed mice [6]; Table 3", "value": 92.11, "unit": "%"}, {"measurement": "Body twisting number ( x ± SD)", "setting": "Kunming breed mice [7]", "value": "5.1 ± 6.0"}, {"measurement": "Pain suppression rate", "setting": "Kunming breed mice [7]", "value": 81.6, "unit": "%"}]}]}
